Test: Solubility of hydrocodone free base in methylene chloride (solvent of the reaction completion test)

## COc1ccc2c3c1O[C@H]1C(=O)CC[C@H]4[C@@H](C2)N(C)CC[C@]314 [hydrocodone free base]
  soluble to the extent of (methylene chloride): 99.94%

— patent US20040157784A1, “Opiod tannate compositions” (Jame Fine Chemicals, Inc., priority 2003, published 2004)
